According to paper PMC6150172, “Synthesis of Oxadiazole-Thiadiazole Hybrids and Their Anticandidal Activity” (Molecules : A Journal of Synthetic Chemistry and Natural …, 2017):
In brackets after ≈: the same amount, converted by molar mass.

Experiments:
[1] = test system: C. glabrata (ATCC 90030); assay: Antifungal broth microdilution assay (EUCAST EDef 7.1), C. glabrata; assay type: cell-based; details: for MIC50: Nakaseomyces glabratus, ATCC90030, read-out: Minimum inhibitory concentration (MIC50)
Procedure: (§1) The anticandidal effect of compounds 6a–6s were screened in accord with the EUCAST definitive (EDef 7.1) method. Ketoconazole was employed as a reference drug. The in vitro growth inhibitory activity of the compounds were tested against C. albicans (ATCC 24433), C. glabrata (ATCC 90030), C. krusei (ATCC 6258) and C. parapsilosis (ATCC 22019). The results were obtained as MIC values and MIC readings were accomplished twice for each chemical agent. After incubating overnight at 37 °C, the fungal strains were sustained in Roswell Park Memorial Institute (RPMI) medium.
(§2) Adjustment of the inoculum density to a 0.5 McFarland turbidity standard was carried out by using a spectrophotometer. The resulting inoculum suspension contained 0.5 × 10^5–2.5 × 10^5 cfu/mL for fungi. The two-fold serial dilutions technique were applied and the test was carried out in Mueller–Hinton broth and RPMI at pH7 and the test was performed for medium at pH7. The last well on the microplates containing only inoculated broth and the last well with no growth of microorganism represent controls and the MIC50 in μg/mL, respectively. DMSO was used as solvent. Further dilutions of the compounds and standard drugs in the RPMI medium were prepared in the required quantities at contcentrations of 800, 400, 200, 100, 50, 25, 12.5, 6.25, 3.125, 1.5625 and 0.78 µg/mL. After a 24 h incubation of the completed plates, resazurin (20 µg/mL) was added into each well in order to observe the fungal growth. […] Each experiment in antifungal assay was performed twice.

[2] = test system: C. krusei (ATCC 6258); assay: Antifungal broth microdilution assay (EUCAST EDef 7.1), C. krusei; assay type: cell-based; details: for MIC50: Pichia kudriavzevii, ATCC6258, read-out: Minimum inhibitory concentration (MIC50)
Procedure: as §1, §2

[3] = test system: C. albicans (ATCC 24433); assay: Antifungal broth microdilution assay (EUCAST EDef 7.1), C. albicans; assay type: cell-based; details: for MIC50: Candida albicans, ATCC24433, read-out: Minimum inhibitory concentration (MIC50)
Procedure: as §1, §2

[4] = test system: C. parapsilosis (ATCC 22019); assay: Antifungal broth microdilution assay (EUCAST EDef 7.1), C. parapsilosis; assay type: cell-based; details: C. parapsilopsis; for MIC50: Lodderomyces parapsilosis, ATCC22019, read-out: Minimum inhibitory concentration (MIC50)
Procedure: as §1, §2

[5] = test system: ergosterol biosynthesis in C. krusei; assay: Ergosterol level quantification by LC-MS-MS in C. krusei; assay type: cell-based; details: Pichia kudriavzevii, mean ± SD
Procedure: The ergosterol level was determined using the method described by Breivik and Owades with adjustments according to [2]. C. krusei was inoculated with Sabouraud dextrose broth (Difco) supplemented with compounds 6e, 6k, 6r and the positive control, ketoconazole. The cultures were incubated, and the stationary-phase cells were harvested. After the addition of 25% alcoholic potassium hydroxide solution, cell suspensions were separated and incubated. Sterols were extracted by sterile distilled water and chloroform, and then the extract was injected into the LC-MS-MS system (Shimadzu LCMS 8040, Kyoto, Japan). The ergosterol quantity in the negative control samples was considered as 100%. All concentrations were analysed in quadruplicate, and the results were presented as mean ± standard deviation (SD).

O=C(CSc1nnc(CCSc2nnc(NC3CCCCC3)s2)o1)c1ccccc1 [Compound 6a, 2-[[5-[2-[[5-(Cyclohexylamino)-1,3,4-thiadiazol-2-yl]thio]ethyl]-1,3,4-oxadiazol-2-yl]thio]-1-phenylethan-1-one]
MIC50 [1]: 50 µg/mL (≈ 108 µM)
MIC50 [2]: 50 µg/mL (≈ 108 µM)
MIC50 [3]: 25 µg/mL (≈ 54.2 µM)
MIC50 [4]: 50 µg/mL (≈ 108 µM)
melting point: 141 °C

Cc1ccc(C(=O)CSc2nnc(CCSc3nnc(NC4CCCCC4)s3)o2)cc1 [Compound 6b, 2-[[5-[2-[[5-(Cyclohexylamino)-1,3,4-thiadiazol-2-yl]thio]ethyl]-1,3,4-oxadiazol-2-yl]thio]-1-(4-methylphenyl)ethan-1-one]
MIC50 [1]: 50 µg/mL (≈ 105 µM)
MIC50 [2]: 100 µg/mL (≈ 210 µM)
MIC50 [3]: 50 µg/mL (≈ 105 µM)
MIC50 [4]: 50 µg/mL (≈ 105 µM)
melting point: 136 °C

COc1ccc(C(=O)CSc2nnc(CCSc3nnc(NC4CCCCC4)s3)o2)cc1 [Compound 6c, 2-[[5-[2-[[5-(Cyclohexylamino)-1,3,4-thiadiazol-2-yl]thio]ethyl]-1,3,4-oxadiazol-2-yl]thio]-1-(4-methoxyphenyl)ethan-1-one]
MIC50 [1]: 25 µg/mL (≈ 50.8 µM)
MIC50 [2]: 100 µg/mL (≈ 203 µM)
MIC50 [3]: 100 µg/mL (≈ 203 µM)
MIC50 [4]: 50 µg/mL (≈ 102 µM)
melting point: 120 °C

O=C(CSc1nnc(CCSc2nnc(NC3CCCCC3)s2)o1)c1ccc(Cl)cc1 [Compound 6d, 2-[[5-[2-[[5-(Cyclohexylamino)-1,3,4-thiadiazol-2-yl]thio]ethyl]-1,3,4-oxadiazol-2-yl]thio]-1-(4-chlorophenyl)ethan-1-one]
MIC50 [1]: 25 µg/mL (≈ 50.4 µM)
MIC50 [2]: 50 µg/mL (≈ 101 µM)
MIC50 [3]: 100 µg/mL (≈ 202 µM)
MIC50 [4]: 50 µg/mL (≈ 101 µM)
melting point: 167 °C

O=C(CSc1nnc(CCSc2nnc(NC3CCCCC3)s2)o1)c1ccc(F)cc1 [Compound 6f, 2-[[5-[2-[[5-(Cyclohexylamino)-1,3,4-thiadiazol-2-yl]thio]ethyl]-1,3,4-oxadiazol-2-yl]thio]-1-(4-fluorophenyl)ethan-1-one]
MIC50 [1]: 50 µg/mL (≈ 104 µM)
MIC50 [2]: 25 µg/mL (≈ 52.1 µM)
MIC50 [3]: 50 µg/mL (≈ 104 µM)
MIC50 [4]: 50 µg/mL (≈ 104 µM)
melting point: 131 °C

O=C(CSc1nnc(CCSc2nnc(NC3CCCCC3)s2)o1)Nc1ccccc1 [Compound 6g, 2-[[5-[2-[[5-(Cyclohexylamino)-1,3,4-thiadiazol-2-yl]thio]ethyl]-1,3,4-oxadiazol-2-yl]thio]-N-phenyl acetamide]
Minimum inhibitory concentration (MIC50) [1]: 50 µg/mL (≈ 105 µM)
Minimum inhibitory concentration (MIC50) [2]: 50 µg/mL (≈ 105 µM)
Minimum inhibitory concentration (MIC50) [3]: 50 µg/mL (≈ 105 µM)
Minimum inhibitory concentration (MIC50) [4]: 50 µg/mL (≈ 105 µM)

Cc1ccc(NC(=O)CSc2nnc(CCSc3nnc(NC4CCCCC4)s3)o2)cc1 [Compound 6h, 2-[[5-[2-[[5-(Cyclohexylamino)-1,3,4-thiadiazol-2-yl]thio]ethyl]-1,3,4-oxadiazol-2-yl]thio]-N-(4-methylphenyl)acetamide]
MIC50 [1]: 100 µg/mL (≈ 204 µM)
MIC50 [2]: 100 µg/mL (≈ 204 µM)
MIC50 [3]: 25 µg/mL (≈ 50.9 µM)
MIC50 [4]: 50 µg/mL (≈ 102 µM)

COc1ccc(NC(=O)CSc2nnc(CCSc3nnc(NC4CCCCC4)s3)o2)cc1 [Compound 6i, 2-[[5-[2-[[5-(Cyclohexylamino)-1,3,4-thiadiazol-2-yl]thio]ethyl]-1,3,4-oxadiazol-2-yl]thio]-N-(4-methoxyphenyl)acetamide]
MIC50 [1]: 100 µg/mL (≈ 197 µM)
MIC50 [2]: 100 µg/mL (≈ 197 µM)
MIC50 [3]: 25 µg/mL (≈ 49.3 µM)
MIC50 [4]: 50 µg/mL (≈ 98.7 µM)

O=C(CSc1nnc(CCSc2nnc(NC3CCCCC3)s2)o1)Nc1ccc(Cl)cc1 [Compound 6j, 2-[[5-[2-[[5-(Cyclohexylamino)-1,3,4-thiadiazol-2-yl]thio]ethyl]-1,3,4-oxadiazol-2-yl]thio]-N-(4-chlorophenyl)acetamide]
MIC50 [1]: 50 µg/mL (≈ 97.8 µM)
MIC50 [2]: 50 µg/mL (≈ 97.8 µM)
MIC50 [3]: 25 µg/mL (≈ 48.9 µM)
MIC50 [4]: 50 µg/mL (≈ 97.8 µM)

O=C(CSc1nnc(CCSc2nnc(NC3CCCCC3)s2)o1)Nc1ccc(F)cc1 [Compound 6l, 2-[[5-[2-[[5-(Cyclohexylamino)-1,3,4-thiadiazol-2-yl]thio]ethyl]-1,3,4-oxadiazol-2-yl]thio]-N-(4-fluorophenyl)acetamide]
MIC50 [1]: 50 µg/mL (≈ 101 µM)
MIC50 [2]: 50 µg/mL (≈ 101 µM)
MIC50 [3]: 100 µg/mL (≈ 202 µM)
MIC50 [4]: 25 µg/mL (≈ 50.5 µM)

O=C(CSc1nnc(CCSc2nnc(NC3CCCCC3)s2)o1)Nc1nc2ccccc2s1 [Compound 6m, 2-[[5-[2-[[5-(Cyclohexylamino)-1,3,4-thiadiazol-2-yl]thio]ethyl]-1,3,4-oxadiazol-2-yl]thio]-N-(benzothiazol-2-yl)acetamide]
MIC50 [1]: 50 µg/mL (≈ 93.7 µM)
MIC50 [2]: 50 µg/mL (≈ 93.7 µM)
MIC50 [3]: 50 µg/mL (≈ 93.7 µM)
MIC50 [4]: 25 µg/mL (≈ 46.8 µM)
melting point: 214 °C

Cc1ccc2nc(NC(=O)CSc3nnc(CCSc4nnc(NC5CCCCC5)s4)o3)sc2c1 [Compound 6n, 2-[[5-[2-[[5-(Cyclohexylamino)-1,3,4-thiadiazol-2-yl]thio]ethyl]-1,3,4-oxadiazol-2-yl]thio]-N-(6-methylbenzothiazol-2-yl)acetamide]
MIC50 [1]: 25 µg/mL (≈ 45.6 µM)
MIC50 [2]: 50 µg/mL (≈ 91.3 µM)
MIC50 [3]: 100 µg/mL (≈ 183 µM)
MIC50 [4]: 25 µg/mL (≈ 45.6 µM)
melting point: 209 °C

COc1ccc2nc(NC(=O)CSc3nnc(CCSc4nnc(NC5CCCCC5)s4)o3)sc2c1 [Compound 6o, 2-[[5-[2-[[5-(Cyclohexylamino)-1,3,4-thiadiazol-2-yl]thio]ethyl]-1,3,4-oxadiazol-2-yl]thio]-N-(6-methoxybenzothiazol-2-yl)acetamide]
MIC50 [1]: 25 µg/mL (≈ 44.3 µM)
MIC50 [2]: 25 µg/mL (≈ 44.3 µM)
MIC50 [3]: 100 µg/mL (≈ 177 µM)
MIC50 [4]: 50 µg/mL (≈ 88.7 µM)

O=C(CSc1nnc(CCSc2nnc(NC3CCCCC3)s2)o1)Nc1nc2ccc(Cl)cc2s1 [Compound 6p, 2-[[5-[2-[[5-(Cyclohexylamino)-1,3,4-thiadiazol-2-yl]thio]ethyl]-1,3,4-oxadiazol-2-yl]thio]-N-(6-chlorobenzothiazol-2-yl)acetamide]
MIC50 [1]: 25 µg/mL (≈ 44 µM)
MIC50 [2]: 25 µg/mL (≈ 44 µM)
MIC50 [3]: 50 µg/mL (≈ 88 µM)
MIC50 [4]: 50 µg/mL (≈ 88 µM)
melting point: 213 °C

O=C(CSc1nnc(CCSc2nnc(NC3CCCCC3)s2)o1)Nc1nc2ccc(F)cc2s1 [Compound 6s, 2-[[5-[2-[[5-(Cyclohexylamino)-1,3,4-thiadiazol-2-yl]thio]ethyl]-1,3,4-oxadiazol-2-yl]thio]-N-(6-fluorobenzothiazol-2-yl)acetamide]
MIC50 [1]: 6.25 µg/mL (≈ 11.3 µM)
MIC50 [2]: 50 µg/mL (≈ 90.6 µM)
MIC50 [3]: 50 µg/mL (≈ 90.6 µM)
MIC50 [4]: 50 µg/mL (≈ 90.6 µM)

CC(=O)N1CCN(c2ccc(OCC3COC(Cn4ccnc4)(c4ccc(Cl)cc4Cl)O3)cc2)CC1 (stereo not drawn) [Ketoconazole, reference compound]
MIC50 [1]: 1.56 µg/mL (≈ 2.94 µM)
MIC50 [2]: 1.56 µg/mL (≈ 2.94 µM)
MIC50 [3]: 0.78 µg/mL (≈ 1.47 µM)
MIC50 [4]: 1.56 µg/mL (≈ 2.94 µM)
inhibition at 0.78 µg/mL ([5]; 0.78 µg/mL): 61 ± 2.94%
inhibition at 1.56 µg/mL ([5]; 1.56 µg/mL): 73.1 ± 4.16%
inhibition at 3.12 µg/mL ([5]; 3.12 µg/mL): 84.6 ± 3.01%
